Where a name gives a salt, the structure may show the parent alone. Read-outs that look alike come from different tables or passages of the source. Each block holds one compound with its values, some of them ahead of it.
What was measured:
[1] = biological target: T1, porcine pancreatic PLA2 (Sus scrofa, UniProt P00592); experiment: Inhibition of porcine pancreatic phospholipase A2 (PLA2), radiochemical assay; type: biochemical; conditions: for Percent Inhibition at 10 ug/ml / inhibition at 10 µg/mL: 10 ug/ml inhibitor; for inhibition at 10 µg/mL: read-out: Percent Inhibition at 10 ug/ml
T1 construct: purchased Sigma
T1 sequence (P00592 23-146): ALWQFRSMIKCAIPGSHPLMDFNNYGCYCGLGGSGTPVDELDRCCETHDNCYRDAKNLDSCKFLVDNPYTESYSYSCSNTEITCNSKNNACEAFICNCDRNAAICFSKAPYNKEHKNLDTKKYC
Protocol: 4-((3-(Dimethylamino)propyl)thio)-1-(hexadecyloxy)-2-butanol, acetate was prepared by the method of Example 64 as a 1 mg/ml solution in methanol. Inhibition of phospholipase A2 activity was measured by a radiochemical assay in which labeled synthetic phosphatidylcholine substrate is converted by porcine pancreatic PLA2 to free radiolabeled arachidonate and lyso phosphatidyl choline. In the assay, radiolabeled arachidonate is extracted from the reaction mixture and separated from unreacted substrate by column or thin layer chromatography. The radioactivity (cpm) in samples is quantified in liquids scintillation counting.
[…] The combined substrate was then redissolved in 0.1M Tris-HCl buffer, pH 9.0, containing 10 mM calcium chloride and 10 mM sodium taurocholate detergent. The mixture was sonicated for 10 to 30 seconds in a Kontes Sonifier to yield a homogeneous dispersion. The "mixed" micellar substrate was clear. An aliquot was reserved for a cpm count (total substrate). The total reaction volume was 500 ul; siliconized glassware or plasticware was used throughout. Porcine pancreatic phospholipase A2 enzyme (Sigma, sp. act. […] U/mg protein and preferably 900 U/mg protein) was diluted 1:750 or 1:1000 in 0.1M Tris-HCl buffer, pH 9.0 (without Ca^++ and detergent).
The test compound was diluted appropriately in phosphate buffered saline. 10 ul aliquots of the stock solution were either incubated with enzyme in buffer in the absence of Ca^++ detergent or were blown under N2 stream with the substrate prior to the addition of buffer. The substrate and buffer were kept on ice until the reaction was started by the addition of enzyme (preincubated with test compound or diluent, or fresh enzyme) to the substrate dispersion in buffer.
Samples (600 ul) were extracted with 3 ml of CHC13 /MeOH solution (2:1) for thin layer chromatography. The phases were separated by gentle centrifugation at 700 rpm for 5 minutes. The organic phase was recovered for either thin layer or column chromatography separation.
For thin layer chromatography, labeled arachidonate extracted with CHC13 /MeOH solution was separated on Silica Gel G TLC plates (Analtech). Twenty ul of a 2 mg/ml internal standard solution of arachidonic acid (Sigma) was combined with 2 to 3 ml of the organic phase. The entire mixture was dried under nitrogen and redissolved in 50 ul of CHC13 /MeOH solution (2:1). A 20 ul sample was counted in 10 ml of Beckman Redi-solv Scintillation fluid HP and spotted in Silica Gel G plates. The solvent system used to develop the plate was a CHC13 /MeOH/13.5N NH3 /H2 O solution (70:30:4:1). Thin layer chromatography plates were developed in a glass chamber for 1 to 11/2 hours, air dried, and the spots visualized in an iodine vapor chamber. Standards of phosphatidyl/choline, lyso phosphatidyl choline, and arachidonic acid (Sigma) were made up as 2 mg/ml stocks in CHC13 /MeOH solution (2:1) and were spotted on the thin layer chromatography plates. Spots corresponding to arachidonate and phospholipid were scraped and counted in 10 ml Beckman Redi-Solv HP scintillation fluid.
For column chromatography, samples were extracted with hexane/diether solution and the upper organic phase recovered. An aliquot was applied to a Silicar CC4 (Maleinckrodt) column. Columns were prepared using 1 ml of 1:1 slurry of Silicar CC4 (Maleinckrodt) in hexane/ether solution in a Pasteur pipet (approximately 2 cm height). Columns were rinsed with 500 ul of hexane/ether solution before adding the sample (300-600 ul) to the columns. Columns were eluted with a total of 6 ml of hexane/ether solution. The 6 ml sample was counted in 10 ml of Beckman Redi-Solv HP scintillation fluid. Thin layer chromatography analysis confirmed that the radioactivity eluted was arachidonate.
3-((3-(Acetyloxy)-4-(hexadecyloxy)-butyl)-thio)-N,N,N-trimethyl-1-propanaminium, iodide was prepared by the method of Example 65 as a 1 mg/ml solution in methanol. […]

[2] = system: spontaneously hypertensive rats; experiment: Hypotensive activity: mean arterial blood pressure in conscious cannulated spontaneously hypertensive rats, intravenous; type: in vivo; conditions: for Peak Mean Arterial Blood Pressure: spontaneously hypertensive rats, intravenous
Text: Under ether anesthesia, Weeks type cannulas (Peterson Technics) were surgically implanted in the abdominal aorta and vena cave of spontaneously hypertensive rats (Taconic Farms, Germantown, NY) and passed subcutaneously to the back of the neck where they were exteriorized. The cannulas were filled with saline, plugged and the rats returned to single cages where they were allowed food and water ad libitum.
At least three days following implantation of the cannulas, the rats were weighed and placed in Broome style restraining cages. The plug was removed from the aortic catheter which was connected to an arterial pressure transducer (Statham P23ID) using PE 100 polyethylene tubing and a stepdown connector fabricated from stainless steel hypodermic tubing. Mean arterial blood pressure was obtained by electrical damping of the pulse pressure channel. Heart rate was obtained from a tachograph triggered by the pulse pressure channel. All parameters were monitored on a Grass physiological recorder (Model 7).
The plug was removed from the vena cava catheter and a PE 20 polyethylene tubing extension was added using a piece of stainless steel hypodermic tubing. The other end was terminated with a 27 G needle and one ml syringe.
All drugs were dissolved in saline or a mixture of ethanol and saline (25:75V:V) such that the volume injected intravenously was 0.1 ml/100 g body weight. All drugs were flushed in with 0.2 ml saline. Blood pressure was continually monitored both before and after introduction of the test compound.

[3] = 1000 uM substrate concentration

Compound: 3-((3-(Acetyloxy)-4-(hexadecyloxy)-butyl)-thio)-N,N,N-trimethyl-1-propanaminium, chloride [Example 69]
Ic50 ([1]; 2 nM substrate concentration): 2.8 µg/mL
Ic50 ([1]; 10 uM substrate concentration): 11.52 ± 10.58 µg/mL
Percent Inhibition at 10 ug/ml ([1]; 2 nM substrate concentration): 77%
Percent Inhibition at 10 ug/ml ([1]; 10 uM substrate concentration): 55.3 ± 16.5%
Percent Inhibition at 10 ug/ml ([1]; 100 uM substrate concentration): 23%
Ic50 ([1]; 100 uM substrate concentration): 45.56 ± 23.60 µg/mL

Compound: CCCCCCCCCCCCCCCCOCC(CCS(=O)(=O)CCC[N+](C)(C)C)OC(C)=O.[Cl-] (stereo not shown) [3-((3-(Acetyloxy)-4-(hexadecyloxy)butyl)sulfonyl)-N,N,N-trimethyl-1-propanaminium chloride]
reduced the blood pressure in the spontaneously hypertensive rat ([2]; dose of 10 mg/kg (iv), value is a reduction): 20 mm Hg

Compound: CCCCCCCCCCCCCCCCOCC(COP(=O)([O-])Oc1cccc(C[N+](C)(C)C)c1)OC(C)=O (stereo not shown) [3-(((2-(Acetyloxy)-3-(hexadecyloxy)propoxy)hydroxyphosphinyl)oxy)-N,N,N-trimethylbenzenemethanaminium, hydroxide inner salt]
Peak Mean Arterial Blood Pressure ([2]; dose 0.1 ug/kg): -10.4 mm,Hg
Peak Mean Arterial Blood Pressure ([2]; dose 0.3 ug/kg): -16.3 mm,Hg
Peak Mean Arterial Blood Pressure ([2]; dose 1.0 ug/kg): -37.2 mm,Hg
Peak Mean Arterial Blood Pressure ([2]; dose 3.0 ug/kg): -83.9 mm,Hg
Peak Mean Arterial Blood Pressure ([2]; dose 10.0 ug/kg): -91.0 mm,Hg

Compound: CCCCCCCCCCCCCCCCOCC(COP(=O)([O-])OC(C)C[N+](C)(C)C)OC(C)=O (stereo not shown) [7-(Acetyloxy)-4-hydroxy-N,N,N,2-tetramethyl-3,5,9-trioxa-4-phosphapentacosan-1-aminium, 4-oxide, hydroxide, inner salt]
Peak Mean Arterial Blood Pressure ([2]; dose 0.3 ug/kg): -17.4 mm,Hg
Peak Mean Arterial Blood Pressure ([2]; dose 1.0 ug/kg): -40.2 mm,Hg
Peak Mean Arterial Blood Pressure ([2]; dose 3.0 ug/kg): -88.8 mm,Hg
Peak Mean Arterial Blood Pressure ([2]; dose 10.0 ug/kg): -96.5 mm,Hg
Peak Mean Arterial Blood Pressure ([2]; dose 30.0 ug/kg): -103.4 mm,Hg

Compound: CCCCCCCCCCCCCCCCOCC(COP(=O)([O-])OCC(c1ccccc1)[N+](C)(C)C)OC(C)=O (stereo not shown) [7-(Acetyloxy)-4-hydroxy-N,N,N-trimethyl-1-phenyl-3,5,9-trioxa-4-phosphapentacosan-1-aminium, 4-oxide hydroxide inner salt]
Peak Mean Arterial Blood Pressure ([2]; dose 10.0 ug/kg): -59.0 mm,Hg

Compound: CCCCCCCCCCCCCCc1cccc(OCC(COP(=O)([O-])OCC(C)[N+](C)(C)C)OC(C)=O)c1 (stereo not shown) [7-Hydroxy-N,N,N-trimethyl-2-oxo-4-((3-tetradecylphenoxy)methyl)3,6,8-trioxa-7-phosphaundecan-10-aminium, 7-oxide, hydroxide, inner salt]
Peak Mean Arterial Blood Pressure ([2]; dose 0.03 ug/kg): -9.8 mm,Hg
Peak Mean Arterial Blood Pressure ([2]; dose 0.1 ug/kg): -17.6 mm,Hg
Peak Mean Arterial Blood Pressure ([2]; dose 0.3 ug/kg): -78.7 mm,Hg
Peak Mean Arterial Blood Pressure ([2]; dose 1.0 ug/kg): -95.9 mm,Hg

Compound: CCCCCCCCCCCCCCCCOCC(COP(=O)([O-])OCC(C)[N+](C)(C)C)OC(C)=O (stereo not shown) [8-(Acetyloxy)-5-hydroxy-N,N-N-trimethyl-4,6,10-trioxa-5-phosphahexacosan-2-aminium, 5-oxide, hydroxide, inner salt]
Peak Mean Arterial Blood Pressure ([2]; dose 0.03 ug/kg): -16.4 mm,Hg
Peak Mean Arterial Blood Pressure ([2]; dose 0.1 ug/kg): -36.3 mm,Hg
Peak Mean Arterial Blood Pressure ([2]; dose 0.3 ug/kg): -58.6 mm,Hg
Peak Mean Arterial Blood Pressure ([2]; dose 1.0 ug/kg): -103.1 mm,Hg
Peak Mean Arterial Blood Pressure ([2]; dose 3.0 ug/kg): -118.3 mm,Hg

IC50 ([1]; 2 nM substrate concentration): 18.6 µM
IC50 ([1]; 10 uM substrate concentration): 45.7 µM
inhibition at 10 µg/mL ([1]; 2 nM substrate concentration): 54%
inhibition at 10 µg/mL ([1]; 10 uM substrate concentration): 33 ± 12.7%
IC50 ([1]; 100 uM substrate concentration): 96.7 µM
IC50 ([1]; 500 uM substrate concentration): 226 µM
Compound: CCCCCCCCCCCCCCCCOCC(CCSCCCN(C)C)OC(C)=O (stereo not shown) [Example 67, 4-((3-(Dimethylamino)propyl)thio)-1-(hexadecyloxy)-2-butanol, acetate]

IC50 ([1]; 2 nM substrate concentration): 2.52 µM
IC50 ([1]; 10 uM substrate concentration): 10.1 µM
inhibition at 10 µg/mL ([1]; 2 nM substrate concentration): 96.6 ± 4.6%
inhibition at 10 µg/mL ([1]; 10 uM substrate concentration): 63.2 ± 13.5%
inhibition at 10 µg/mL ([1]; 100 uM substrate concentration): 45 ± 13.6%
inhibition at 10 µg/mL ([1]; 500 uM substrate concentration): 15.4 ± 5.7%
inhibition at 10 µg/mL [1, 3]: 8.2 ± 4.6%
IC50 ([1]; 100 uM substrate concentration): 20 µM
IC50 ([1]; 500 uM substrate concentration): 96.8 µM
IC50 [1, 3]: 137 µM
Compound: CCCCCCCCCCCCCCCCOCC(CCSCCC[N+](C)(C)C)OC(C)=O (stereo not shown) [Example 68, 3-((3-(Acetyloxy)-4-(hexadecyloxy)-butyl)-thio)-N,N,N-trimethyl-1-propanaminium, iodide]

Reference: patent US5126291A, “Sulfur inhibitors of phospholipase A-Z” (American Cyanamid Company, priority 1990, dated 1992)
